Experimental data reported in paper PMC8745263 (International Journal of Molecular Sciences, 2021).

Test: RP-HPLC mobility of peptide before and after H2O2 oxidation (hydrophilicity)
Format: physicochemical
Conditions: RP-HPLC/LC-MS, C18 column, H2O/CH3CN with TFA; before and after 3% H2O2 oxidation; Supplementary Figure S1A,B
Method: GDF11[48-64]wt was converted to the variant with oxidized methionines by treatment with 3% H2O2, monitoring the reaction progression by reverse-phase HPLC chromatography (RP-HPLC) and mass spectrometry, using the un-oxidized precursor as control. The occurrence of the peroxide oxidation rendered the peptide more hydrophilic than its unoxidized counterpart, as clearly indicated in Supplementary Figure S1A,B by the shift in the RP-HPLC mobility of GDF11[48-64]ox to shorter retention time (9.97 min) with respect to that of GDF11[48-64]wt (11.41 min).
All protected amino acids, including 7-N-Fmoc-aminocoumarin-4-acetic acid (Fmoc-ACA-OH), Fmoc-Met(O)-OH, the coupling agents (1-[Bis(dimethylamino)methylene]-1H-1,2,3-triazol [4,5-b]pyridinium 3-oxid-hexafluorophosphate (Hexafluorophosphate Azabenzotriazole Tetramethyl Uronium, HATU), diisopropylcarbodiimide (DIC), ethyl cyanohydroxyiminoacetate (OXYMA)) and Fmoc-Rink Amide AM Resin used for peptide synthesis were purchased from IRIS Biotech GmbH (Marktrewitz, DE). Acetonitrile (CH3CN), dimethylformamide (DMF), trifluoroacetic acid (TFA), and methanol (CH3OH) were purchased from ROMIL (Dublin, Ireland). […]
Figure S1. Oxidation reaction of GDF11[48-64]wt with hydrogen peroxide monitored by LC-ESI-TOF-MS (LC-MS) analysis. […] After incubation, the samples were collected and analyzed by LC-MS. […]

Row | RP-HPLC retention time (shift to shorter time = more hydrophilic) | Substance
1 | 9.97 min | Ac-EYM(ox)FM(ox)QKYPHTHLVQQA-NH2 [GDF11[48-64] wt ox, GDF11[48-64]wt bearing sulphoxide groups on M50 and M52, by 3% H2O2 treatment]
2 | 11.41 min | Ac-EYMFMQKYPHTHLVQQA-NH2 [GDF11[48-64]wt, peptide reproducing the 48–64 region of GDF11 protein, acetylated and amidated]
